# Data: patent US10975069B2, “Sigma-2 receptor ligand drug conjugates as antitumor compounds, methods of synthesis and uses thereof” (priority 2014, dated 2021)
# Where two headings read alike, the source gives them in different places.
# Key:
# [1] = tested on: all human and murine pancreatic cancer cell lines tested; experiment: Viability assay on panel of pancreatic cancer cell lines; format: cell-based
# Description: In these experiments, viability assays after 24 hours treatment of human and murine pancreatic cancer cell lines and synovial sarcoma cell lines with SW V-49s or its parent compounds SV119 and Erastin, both singly and in combination, were performed. […] In comparison.
# Cytotoxicity of the drugs was evaluated by CELLTITER-GLO®. Luminescent cell viability assay (Promega, Madison, Wis.). Pancreatic cell lines were plated at a density of 2×10^4/well in white 96 well, clear bottom plates for 24 hours prior to treatment. Drugs were dissolved in DMSO and serially diluted in culture medium to achieve the final concentration of DMSO less than 1%. Cells were then treated for 24 hours and 100 μl of the CELLTITER-GLO® reagent was added to each well. The contents of the plates were mixed using an orbital shaker and subsequently incubated for 10 minutes at room temperature. Luminescence signal was measured using a multi-mode microplate reader (BioTek instruments. Winooski, Vt.). Different drug concentrations were assayed in triplicate. To evaluate the efficacy of the drugs, IC50 of the compounds was calculated on a panel of human and mouse derived pancreatic cancer cell lines in vitro. Cells were treated for 24 hours with SW V-49s, SV119, Erastin, and an equimolar mixture of SV119 and Erastin, then CELLTITER-GLO® viability assay was performed.
# [2] = tested on: caspase 3/7; experiment: CASPASE-GLO caspase 3/7 assay in AsPC-1 cells; format: cell-based, human; conditions: for caspase activity compared to 4 μM SW V-49s: 50 μM, 24 hr., FIG. 5A
# Excerpt: In these experiments, the inventors investigated whether compounds of the present teachings were lethal towards pancreatic cancer cells by triggering an apoptosis cell death pathway, a ferroptosis cell death pathway, or a combination thereof. The inventors thus performed assays for caspase 3/7 as an indicator of apoptotic cell death, and assays for the generation of reactive oxygen species (ROS) as an indicator of ferropoptotic cell death. […] In FIG. 5B, results are shown for Caspase-Glo® (Promega) assays of Aspc-1 cells treated with 8 μM SW V-49s, 8 μM Erastin, 8 μM SV119, or 8 μM of an equimolar mixture of Erastin and SV 119, for 7 hrs.
# (§1) In these experiments, caspase-3/7.8 and 9 activities were measured In AsPC-1 cells using the corresponding CASPASE-GLO® Assay according to the manufacturer's instructions (Promega, Madison. Wis.). This assay is based on a caspase-specific substrate, which is cleaved to release aminoluciferin, a substrate of luciferase that results in caspase-specific luminescence signals. Cells were seeded at a density of 2×10^4 in white 96-well, clear bottom plates for 24 hours before treatment with 4 μM of compounds. The contents were then mixed using a plate shaker for 30 seconds, thereafter incubated at room temperature for 90 minutes. Luminescence signal was measured using a multi-mode microplate reader (BioTek). Assay was performed in triplicates, and the caspase activity of DMSO was considered as a base line.
# (§2) The present inventors have shown that SV119 induces caspase-3 dependent apoptosis (Kashiwagi, H., el al. Mol Cancer 2007; 6:48). In these experiments, AsPC-1 cells were treated with 4 μM of SW V-49s. SV119, Erastin, and equimolar mixture of SV119 and Erastin for 24 hours. Using CASPASE-GLO® Assays, Caspase-3 level was measured to assess the activity of SW 119 domain of the SW V-49s compound and Caspase-8 and 9 levels were measured to identify which apoptotic pathway was involved.
# [3] = tested on: caspase 9; experiment: CASPASE-GLO caspase 9 assay in AsPC-1 cells; format: cell-based, human; conditions: 4 μM, 24 hours, DMSO baseline, FIG. 12B
# Description: as §1, §2
# [4] = tested on: caspase 8; experiment: CASPASE-GLO caspase 8 assay in AsPC-1 cells; format: cell-based, human; conditions: 4 μM, 24 hours, FIG. 12C
# Description: as §1, §2
# [5] = tested on: AsPC-1 cells; experiment: CELLTITER-GLO viability after pre-treatment with NAC or ZVAD; format: cell-based; conditions: Homo sapiens
# Description: To assess the roles of these two mechanisms on the induction of cell death, the effects of pan-caspase inhibitor and antioxidant on the efficacy of SW V-49s were tested. In these experiments, AsPC-1 cells were pre-treated with 10 mM of the antioxidant N acetyl cysteine (NAC), 20 μM of pan-caspase inhibitor ZVAD, and DMSO as a control for 1 hour. Then, the 3 groups were treated with 10 μM of SW V-49s for 5 hours, after which a CELLTITER-GLO® viability assay was performed.
# [6] = tested on: KCKO mouse pancreatic tumors; experiment: Syngeneic subcutaneous KCKO pancreatic tumor model; format: in vivo, C57BL/6 mice
# Excerpt: FIG. 7 illustrates changes in mean tumor volume (in mm^3) following administration to interval of C57BL/6 mice with established, syngeneic, subcutaneous KCKO mouse pancreatic tumors over a period of 10 days for SW V-49s. Erastin, SV119, a mixture of Erastin and SV119, and a vehicle control. […] Note in FIG. 7 the decrease in tumor volume from approx. 40 mm^3 to approx. 20 mm^3 in SW V 49s-treated mice, compared to an increase from approx. 40 mm^3 to approx. 140 mm^3 for other treatments.
# In these experiments, in a survival study of the mice reported in Example 9, the group which received SW V-49s survived at 100% (FIG. 8). In all other groups, the mean survival clustered at around 18 days.
# Animal studies were performed according to the animal studies protocol approved by Washington University Institutional Animal Care Facility. In vivo studies with mice were performed to compare the effects of SW V-49s, SV119. Erastin, a combination of SV119 with Erastin, and vehicle. The vehicle used in the in vivo studies is a mixture of 25% cremophor and 75% H2O. C57BL/6 mice (6 weeks old. National Cancer Institute Laboratories) were injected in the right flank with 200 μL single cell suspension of KCKO cells in RPMI medium (25×10^4/10^5 cells per mouse). Mice were randomized into four groups (n=15). Treatment was started when the mean tumor diameter was ^˜5 mm. Mice received daily intra peritoneal injections with 375 nmoles in 100 μL/dose of SW V-49s and vehicle for 10 days SV119. Erastin, equimolar mix of SV119 and Erastin. Tumors were measured every other day with a digital caliper. Several mice from different treatment groups were sent to the Division of Comparative Medicine in our institution for pathologic evaluation. Blood was collected for complete blood count (CBC) and biochemical analysis (AST, ALT, BUN, total bilirubin, and Cr). Organs were examined grossly and histologically.
SMILES,"IC50 ([1]; Pancreatic cancer cell, 24 h, 24 hours treatment, against all human and murine pancreatic cancer cell lines tested) [µM]","IC50 ([1]; Pancreatic cancer cell, 24 h, panel of human and mouse derived pancreatic cancer cell lines) [µM]",caspase activity compared to 4 μM SW V-49s ([2]; AsPC-1 cells),"reduction of IC50 as compared to equimolar mixture of SV119 and Erastin ([1]; 24 hours, pancreatic cancer cell line panel)","caspase-3 fold above baseline ([2]; 4 μM, 24 hours, AsPC-1, DMSO baseline, FIG. 12A) [fold]","increase in caspase 3/7 activity compared to all controls ([2]; 8 μM, 7 hrs, AsPC-1 cells, FIG. 5B)",caspase-9 fold above baseline [3] [fold],increase in caspase 8 [4],"viability at 10 µM ([5]; ASPC1, 10 μM SW V-49s 5 hours after 1 hour pre-treatment with 20 μM ZVAD) [%]","viability at 10 µM ([5]; ASPC1, 10 μM SW V-49s 5 hours after 1 hour pre-treatment with 10 mM NAC) [%]","viability at 10 µM ([5]; ASPC1, 10 μM SW V-49s alone, 5 hours (DMSO pre-treatment)) [%]","change in tumor volume ([6]; 10 days, p<0.05, FIG. 7)","effect on mean tumor volume / tumor growth ([6]; daily i.p. 375 nmoles for 10 days, FIG. 14A)","median survival ([6]; daily i.p. 375 nmoles for 10 days, Kaplan-Meier, FIG. 14B) [days]","mean tumor volume at end of treatment ([6]; over a period of 10 days, from approx. 40 mm^3 at start, FIG. 7)","survival ([6]; survival study, FIG. 8) [%]","IC50 ([1]; 24 hours treatment, against all human and murine pancreatic cancer cell lines tested, read-out: IC50) [µM]"
CCOc1ccccc1-n1c(C(C)N2CCN(C(=O)COc3ccc(Cl)cc3)CC2)nc2ccccc2c1=O (stereo not drawn) [Erastin],> 100,> 150,far less caspase activity,,,,,,,,,,,,,,
CCOc1ccccc1-n1c(CN2CCN(C(=O)COc3ccc(CNCCCCCCN4C5CCCC4CC(OC(=O)Nc4cc(C)ccc4OC)C5)cc3)CC2)nc2ccccc2c1=O.O=C(O)C(=O)O (stereo not drawn) [SW V-49s],,,,17-20 fold,3.4,approximately 3 fold,3.2,no significant increase,91,63,39,significant decrease in tumor volume,capable of reducing the mean tumor volume,48,approx. 20 mm^3,100,
"COc1ccc(C)cc1NC(=O)OC1C[C@H]2CCC[C@@H](C1)N2CCCCCCN (stereo partly drawn) [SV119, reference compound]",,,far less caspase activity,,,,,,,,,,,,,,> 54
